The values below come from ChEMBL document CHEMBL4043119, “Synthesis and biological evaluation in vitro and in mammalian cells of new heteroaryl carboxyamides as HIV-protease inhibitors” (Bioorg Med Chem, 2017).

A short description of data set [1]: (§1) Cytotoxicity against HEK293 cells after 24 hrs by MTT assay. The data set is classed as cell-based. As to conditions: human, HEK293 cells.
Data set [2] relates to HEK293. The data set is described as §1. The data set is classed as cell-based. As to conditions: human, hek293, 24 h.
The subject of data set [3] is Human immunodeficiency virus 1. Nature of the data set: Inhibition of recombinant HIV-1 GFP-tagged protease expressed in HEK293 cells assessed as increase in GFP-tagged protease accumulation after 24 hrs by fluorescence microscopic analysis. The data set is classed as cell-based.
For data set [4], the system named is Human immunodeficiency virus 1. Nature of the data set: Inhibition of recombinant HIV-1 GFP-tagged protease expressed in HEK293 cells assessed as increase in GFP-tagged protease accumulation at 10 uM after 24 hrs by Western blot analysis. The data set is classed as cell-based. In general terms: In western blotting, separated proteins are transferred to a membrane and probed.

The nature of data set [5]: Inhibition of wild-type recombinant HIV-1 protease expressed in Escherichia coli using Abz-Thr-Ile-Nle-Phe(p-NO2)-Gln-Arg-NH2 as substrate by fluorescence assay. On the set-up: species or system Human immunodeficiency virus 1.
The subject of data set [6] is Human immunodeficiency virus 1. Nature of the data set: Inhibition of recombinant HIV-1 GFP-tagged protease expressed in HEK293 cells assessed as increase in GFP-tagged protease accumulation at 10 to 30 uM after 24 hrs by flow cytometric analysis. The data set is classed as cell-based. Background: A flow cytometer gives signals particle by particle.
Data set [7] has as its system Human immunodeficiency virus 1. Description: Inhibition of recombinant HIV-1 GFP-tagged protease expressed in HEK293 cells assessed as increase in GFP-tagged protease accumulation at 10 uM after 24 hrs by flow cytometric analysis. The data set is classed as cell-based.

Structures are written as SMILES. The source made the active and inactive calls. The calls are words filed in the database; no cut-off is given here.

The CC50 is the concentration giving 50% cytotoxicity. A high value points to lower toxicity to the cells. For orientation: IC50 means the point on the concentration scale where inhibition reaches its midpoint. Consider `COc1ccc(S(=O)(=O)N(CC(C)C)C[C@@H](O)[C@H](Cc2ccccc2)NC(=O)c2ccc3occc3c2)cc1OC`, for which, in data set [1], the cytotoxic concentration (CC50) at 24 h is > 200 µM. Moreover, in data set [2], the Activity result is on record as “Dose-dependent effect”. In addition, the inhibition result in data set [3] and in data set [6] was “Active” throughout. Further, the “Inhibition (qualitative activity call)” value in data set [4] was “Active”. Also, the IC50 in data set [5] was found to be 0.0011 µM.

Turning to `COc1ccc(S(=O)(=O)N(CC(C)C)C[C@@H](O)CNC(=O)c2ccc3sccc3c2)cc1OC`, the IC50 in data set [5] came out at 0.015 µM.

Consider `COc1ccc(S(=O)(=O)N(CC(C)C)C[C@@H](O)[C@H](Cc2ccccc2)NC(=O)c2ccc3[nH]ccc3c2)cc1OC`, for which the CC50 at 24 h in data set [1] was > 200 µM. For the same compound, the Activity entry in data set [2] is on record as “Dose-dependent effect”. Further, the inhibition result in data set [3] and in data set [6] was “Active” in each case. Besides, in data set [4], the “Inhibition (qualitative activity call)” value was “Active”. Further, in data set [5], the IC50 stood at 0.002 µM.

With `CC(C)CN(C[C@@H](O)[C@H](Cc1ccccc1)NC(=O)O[C@H]1CO[C@H]2OCC[C@H]21)S(=O)(=O)c1ccc(N)cc1`, the inhibition entry in data set [3] and in data set [7] was “Active” throughout. Further, the “Inhibition (qualitative activity call)” value in data set [4] is “Active”.

`COc1ccc(S(=O)(=O)N(CC(C)C)C[C@@H](O)CNC(=O)c2ccc3occc3c2)cc1OC`: the IC50 in data set [5] came out at 0.001 µM.

As for `COc1ccc(S(=O)(=O)N(CC(C)C)C[C@@H](O)CNC(=O)c2ccc3[nH]ccc3c2)cc1OC`, the IC50 in data set [5] was 4 µM.

`COc1ccc(S(=O)(=O)N(CC(C)C)C[C@@H](O)[C@H](Cc2ccccc2)NC(=O)c2ccc3sccc3c2)cc1OC`: in data set [1], the CC50 at 24 h is > 200 µM. For the same compound, the Activity result in data set [2] is “Dose-dependent effect”. The inhibition entry in data set [3] and in data set [6] was “Active” throughout. In data set [4], the “Inhibition (qualitative activity call)” value is “Active”. For the same compound, the IC50 in data set [5] was 0.013 µM.
